Data reported in patent US10064883B2, “Lipiodol-based anti-tumour emulsion for treating cancer” (CHU DE DIJON, priority 2012, dated 2018).

Assays:
Assay type in all cases: cell-based
SNU-449 = assay: in vitro effectiveness of anticancer agents on CHC cell line SNU-449; settings: SNU-449 CHC cell line
HepG2 = assay: in vitro effectiveness of anticancer agents on CHC cell line HepG2
SNU-398 = assay: in vitro effectiveness of anticancer agents on CHC cell line SNU-398; settings: SNU-398 CHC cell line

Measured: effectiveness among the anticancer agents in vitro

CC(=O)[C@]1(O)Cc2c(O)c3c(c(O)c2[C@@H](O[C@H]2C[C@H](N)[C@H](O)[C@H](C)O2)C1)C(=O)c1ccccc1C3=O [Idarubicin]
most effective: all assays above
